Article PMC8488693 (Proceedings of the National Academy of Sciences of the …, 2021)

Experiments:
[1] = molecular target: Hs20S β5c (Homo sapiens, UniProt P20618+P28074); test: Hs20S β5c activity, Ac-WLA-AMC cleavage with human PA28αβ; format: biochemical
[2] = tested on: Pf cultures; conditions: ref [9]; cited from earlier work

More potent as inhibitor of Hsβ5c activity than of Pfβ5 activity [1]: twofold
Compound: CC(C)C[C@H](NC(=O)[C@H](Cc1ccccc1)NC(=O)c1cnccn1)B(O)O [Bortezomib, bortezomib, reference compound]
Synergy with dihydroxyartemisinin (DHA) [2]: strong synergy
